{"source": "patent US20200397894A1", "about": "“COMPOSITIONS AND METHODS FOR TREATING CANCER” (University of Virginia Patent Foundation, priority 2016, published 2020)", "key": {"[1]": {"test_system": "hTERT-transformed keratonocytes (OKF6-TERT2)", "experiment": "Rereplication by FACS in control keratinocytes", "assay_type": "cell-based, human", "procedure": "(§1) The effect of pevonedistat treatment or CDT2, geminin, or EMI1 knockdown on the cell cycle (and induction of DNA rereplication) was assessed by flow cytometry with propidium iodide (PI) staining. Cells were harvested at 72 or 96 hours post-treatment with pevonedistat or post-transfection, respectively. Cells were collected, washed with PBS, and resuspended in ethanol (75%). Cells were subsequently treated with 20 μg of DNase-free RNase and stained with PI following the manufacturer's protocol. FACSCAN™ (Becton, Dickinson and Company, Franklin Lakes, N.J., United States of America) was used to analyze the samples and G0-G1, S, and G2-M fractions were segmented. Subsequent analysis using FLOWJO® (FLOWJO, LLC, Ashland, Oreg., United States of America) and ModFit (Verity Software House, Topsham, Me., United States of America) software was used to determine apoptotic and re-replicating fractions. Where indicated, Cal27 and FaDu cells were treated with pevonedistat for 48 hours and pulsed with BrdU (10 nM) for 1 hour in the dark prior to harvesting. […] Sampled were analyzed on a FACSCAN™ (Becton, Dickinson and Company, Franklin Lakes, N.J., United States of America), and different fractions of BrdU positive cells were determined using FLOWJO® (FLOWJO, LLC, Ashland, Oreg., United States of America) and ModFit (Verity Software House, Topsham, Me., United States of America) software."}, "Cal27 or FaDu cells": {"test_system": "Cal27 or FaDu cells", "experiment": "FACS analysis of HNSCC cells (line not given)", "assay_type": "cell-based, human", "procedure": "as §1, with “Cells were harvested at 72 or 96 hours post-treatment with pevonedistat or post-transfection, respectively.” left out"}, "HNSCC cells": {"test_system": "HNSCC cells", "experiment": "Colony formation and CYQUANT cell viability assays", "assay_type": "cell-based", "conditions": "Homo sapiens", "procedure": "HNSCC cells were transfected with si-RNA (48 hours prior to first count) or treated with pevonedistat (24 hours prior to first count). 8×10^5 cells were seeded in 60 mm plates and cell proliferation was determined by staining with trypan blue and counting by COUNTESS™ Automated Cell Counter (INVITROGEN™, Carlsbad, Calif., United States of America). Depending on the cell growth rate, cell counts were recorded either every 24 or 48 hours, and growth curves were established.\nThe effect of pevonedistat treatment or transient silencing of CDT2, geminin, or EMI1 on cell proliferation or on radiation sensitivity was tested using clonogenic survival assays. Cells were transfected with the appropriate si-RNA 48 hours prior to seeding. Cells were then counted using COUNTESS™ Automated Cell Counter (INVITROGEN™, Carlsbad, Calif., United States of America) and were seeded at 15,000 cells/plate in 60 mm dishes. Cells were irradiated 24 hours after seeding with various doses and were cultured for 7-10 days. […] QUANTITY ONE® software (BioRad Laboratories, Inc., Hercules, Calif., United States of America) was used to quantify the number of colonies and survival curves were established based on the linear quadratic model, using the formula S=e^−αD-βD2; where S represents the surviving fraction and D the dose of irradiation. […]"}, "SqCC/Y1 HNSCC cells": {"test_system": "SqCC/Y1 HNSCC cells", "conditions": "SqCC/Y1, 0.5 μM pevonedistat; cited from earlier work"}}}
{"molecule": "NS(=O)(=O)OCC1CC(n2ccc3c(NC4CCc5ccccc54)ncnc32)CC1O", "note": "[pevonedistat, ((1S,2S,4R)-4-(4-((1S)-2,3-Dihydro-H-inden-1-ylamino)-7H-pyrrolo(2,3-d)pyrimidin-7-yl)-2-hydroxycyclopentyl)methyl sulphamate]", "values": [{"measurement": "DNA rereplication", "setting": "[1]", "result": "not observed"}, {"measurement": "cells exhibiting sub-G1 DNA content", "setting": "Cal27 or FaDu cells; 72 hours post-treatment", "result": "5-10%"}, {"measurement": "concentration at which rereplication was also observed", "setting": "Cal27 or FaDu cells; as early as 24 hours following treatment", "result": 40, "unit": "nM"}, {"measurement": "IC50", "setting": "HNSCC cells", "result": "~50", "unit": "nM"}, {"measurement": "apoptosis (% of cells)", "setting": "SqCC/Y1 HNSCC cells", "result": 55, "unit": "%"}]}
